Reference: patent US20100172845A1, “COMPOSITIONS AND METHODS FOR TREATING MYCOBACTERIAL INFECTIONS” (BOARD OF REGENTS OF THE UNIVERSITY OF TEXAS SYSTEM, priority 2007, published 2010)
Entries after “also recorded” stand apart in the source; their conditions may differ.

Assays:
[1] = test system: Erdman strain of MTB; test: Effect of surfactants on corded state and number of MTB in vitro (microscopy, acid-fast staining); format: cell-based, Mycobacterium tuberculosis; details: for bactericidal action on MTB: 1% (wt/vol.), OG 24 hr, DDM 2 hr
[2] = mouse, in vivo
[3] = test system: MTB; test: Growth of MTB in the presence of surfactant; format: cell-based, Mycobacterium tuberculosis; details: 0.3% surfactant
[4] = 1% (wt/vol.) surfactant, 2 hr exposure
[5] = 1% (wt/vol.) surfactant, 30 min exposure

Row | Compound | elimination of bacteria [1, 4] | loss / reduction of cording of MTB [1, 4] | bactericidal action on MTB [1] | body weight versus control animals [2] | histological examination of spleens and livers [2] | histopathological differences of lung, liver and spleen tissues versus control [2] | leukocyte count and cytologic composition of the lavage fluid [2] | tolerability by the lungs [2] | reversal of cording of corded MTB preparation ([1]; 1% surfactant, over the time period of the study) | number of bacteria in the background (higher power view) [1, 5] | reversal of aggregation / number of cords of MTB [1, 5] | decrease in the corded state of MTB ([1]; 1% (wt/vol.) surfactant, 24 hr incubation) | bacteria eliminated (50× image) ([1]; 1% (wt/vol.) surfactant, within 24 hours of treatment) | growth of MTB and mycolic acid coat [3]
1 | CCCCCCCCCCCCO[C@@H]1O[C@H](CO)[C@@H](O[C@H]2O[C@H](CO)[C@@H](O)[C@H](O)[C@H]2O)[C@H](O)[C@H]1O [DDM, n-dodecyl-β-D-maltoside] | elimination of most of the bacteria | reduce cording to a similar extent of OG after 24 hr exposure; also recorded: rapid loss of cording | bactericidal | no difference in the body weight | did not reveal any visible changes | no identifiable histopathological differences | no change were found | well tolerated by the lungs | – | – | – | – | – | –
2 | CCCCCCCCCCCCCCCC(=O)OC[C@H](COP(=O)([O-])OCC[N+](C)(C)C)OC(=O)CCCCCCCCCCCCCCC [DPPC, 1,2-dipalmitoyl-sn-3-glycerophosphoryl choline, reference compound] | – | – | – | – | – | – | – | – | did not reverse cording | – | – | – | – | –
3 | CCCCCCCCO[C@@H]1O[C@H](CO)[C@@H](O)[C@H](O)[C@H]1O [OG, n-octyl-β-D-glucoside] | – | – | acts as a bacteriocide; also recorded: bactericidal | no difference in the body weight | did not reveal any visible changes | no identifiable histopathological differences | no change were found | well tolerated by the lungs | – | significant loss in the number of bacteria in the background | major reduction in the number of the cords; also recorded: rapidly reversed aggregation of MTB | more pronounced | over 90% | will grow in the presence of 0.3% OG but are not surrounded by their extensive coat of mycolic acid
